Reference: patent US20060099681A1, “Human and mouse alkaline ceramidase 1 and skin diseases” (U.S. DEPARTMENT OF VETERANS AFFAIRS, priority 2004, published 2006)

Molecular target: T1, mouse alkaline ceramidase 1 (maCER1) (Mus musculus, UniProt Q8R4X1)
T1 construct: The ORF of the mouse alkaline ceramidase was amplified from the mouse liver cDNA library; made in house; host or cells: Saccharomyces cerevisiae mutant strain Δypc1Δydc1 (microsomes, galactose-induced, pYES2-FLAG-maCER1)
T1 sequence (Q8R4X1 1-273): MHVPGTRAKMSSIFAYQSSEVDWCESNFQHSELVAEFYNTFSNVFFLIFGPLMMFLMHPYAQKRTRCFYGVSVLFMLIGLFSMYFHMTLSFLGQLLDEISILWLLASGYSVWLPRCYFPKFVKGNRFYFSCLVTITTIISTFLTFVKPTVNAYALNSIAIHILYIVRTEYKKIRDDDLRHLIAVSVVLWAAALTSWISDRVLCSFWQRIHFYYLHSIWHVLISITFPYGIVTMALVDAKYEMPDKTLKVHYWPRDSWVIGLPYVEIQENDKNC
Assay: Ceramidase activity assay with maCER1-containing yeast microsomes (release of NBD-fatty acid from D-e-C12-NBD-ceramide)
Type: biochemical
Conditions: FIG. 4C; for effect of sphingoid base on ceramidase activity (in words): same concentration range as sphingosine
Protocol: The microsomes, as in FIGS. 2A-D were assayed for ceramidase activity using D-e-C12-NBD-ceramide (200 μM) as substrate at different pH in the presence of 0.2% NP-40 and 5 mM Ca^2+ (FIG. 4A), at pH 8.5 in the presence of different cations (FIG. 4B), or different sphingoid bases (FIG. 4C). Results are the mean±SD of three independent experiments performed in duplicate.
maCER1 was expressed in yeast cells as described (Reference 21). Briefly, the expression construct pYES2-FLAG-maCER1 or the empty vector pYES2-FLAG was transformed into the yeast strain Δypc1Δydc1. Expression of the FLAG-tagged maCER1 was induced by 2% galactose.
Ceramidase activity was determined by the release of NBD-fatty acid from fluorescent substrates, NBD-C12-ceramide, dihydroceramide, or phytoceramide as described (Reference 21). Briefly, 20 μl of microsomes (containing 10-20 μg proteins) in buffer B (25 mM Tris-HCl, pH 8.0, 5 mM CaCl2) was mixed with 20 μl of 200 μM NBD-ceramide in buffer B with 0.4% NP-40 in a 1.5 ml microfuge tube. After incubation at 37° C. for 30-60 min, the reactions were stopped by boiling for 5 min, and dried under a SpeedVec. The released NBD-fatty acid was separated from NBD-ceramide by TLC in a solvent of chloroform:methanol: ammonium hydroxide (90:30:0.5) and quantified by PhosphorImager set at the fluorescent mode. To determine the pH optimum of maCER1, the maCER1 microsomes were resuspended in buffer C (1 mM Tris-HCl, pH 7.4, containing 5 mM CaCl2). To determine a cation effect, the maCER1 microsomes were resuspended in buffer A without CaCl2.

Structure (SMILES) | effect of sphingoid base on ceramidase activity (in words) | IC50 (maCER1 microsomes, substrate D-e-C12-NBD-ceramide (200 μM), read-out: IC50 for the inhibition of ceramidase activity)
CCCCCCCCCCCCCC[C@@H](O)[C@@H](O)[C@@H](N)CO [phytosphingosine, D-ribo-phytosphingosine] | neither phytosphingosine nor dihydrosphingosine in the same concentration range were inhibitory | 
CCCCCCCCCCCCCCC[C@@H](O)[C@@H](N)CO [dihydrosphingosine, D-erythro-dihydrosphingosine] | neither phytosphingosine nor dihydrosphingosine in the same concentration range were inhibitory | 
CCCCCCCCCCCCC/C=C/[C@@H](O)[C@@H](N)CO [sphingosine, D-erythro-sphingosine] |  | ~80 µM
